Data taken from ChEMBL document CHEMBL5143523, “Construction and activity evaluation of novel benzodioxane derivatives as dual-target antifungal inhibitors” (Eur J Med Chem, 2022).
≈ marks a conversion by molar mass, not a printed value. Calls of active or inactive are those of the source. The rule behind the calls is not given here.

Assays:
Candida tropicalis = experiment: Antifungal activity against Candida tropicalis ATCC 1369 assessed as fungal growth inhibition measured after 72 hrs by CLSI protocol based liquid medium dilution method; format: functional
[1] = Nephrotoxicity in mouse infected with Candida albicans ATCC SC5314 assessed as change in plasma BUN level at 4 mg/kg, ip administered ever other day for 12 days; format: toxicity, organism-based; conditions: in vivo, 288 h, time 12 day
Candida albicans [2] = experiment: Induction of apoptosis in Candida albicans ATCC SC5314 cells assessed as live cells at 8 ug/ml incubated for 72 hrs by Annexin V-FITC/PI staining based flow cytometry method (reference value: 95.56%); format: functional; conditions: dose 8 µg/ml
[3] = target: Lanosterol 14-alpha demethylase (Candida albicans (strain SC5314 / ATCC MYA-2876) (Yeast), UniProt P10613); experiment: Inhibition of CYP51 in Candida albicans ATCC SC5314 incubated for 30 mins using eburicol as substrate in presence of NADPH by HPLC analysis
Mus musculus [4] = experiment: In vivo antifungal activity against Candida albicans ATCC SC5314 infected mouse model assessed as reduction in nuclear aggregation at 4 mg/kg, ip administered ever other day for 12 days by hematoxyin-eosin staining based microscopic analysis; format: functional, organism-based; conditions: time 12.0 day
[5] = Toxicity in mouse infected with Candida albicans ATCC SC5314 assessed as pathological changes in heart at 4 mg/kg, ip administered ever other day for 12 days by hematoxylin and eosin staining based histopathological analysis; format: organism-based; conditions: in vivo, 288 h, time 12 day
Mus musculus [6] = experiment: In vivo antifungal activity against Candida albicans ATCC SC5314 infected mouse assessed as regular arrangement of endothelial tissue at 4 mg/kg, ip administered ever other day for 12 days by hematoxyin-eosin staining based microscopic analysis; format: functional, organism-based; conditions: time 12.0 day
Mus musculus [7] = experiment: In vivo antifungal activity against Candida albicans ATCC SC5314 infected mouse model assessed as regular arrangement of intercellular space at 4 mg/kg, ip administered ever other day for 12 days by hematoxyin-eosin staining based microscopic analysis; format: functional, organism-based; conditions: time 12.0 day
[8] = Toxicity in mouse infected with Candida albicans ATCC SC5314 assessed as pathological changes in spleen at 4 mg/kg, ip administered ever other day for 12 days by hematoxylin and eosin staining based histopathological analysis; format: organism-based; conditions: in vivo, 288 h, time 12 day
Candida albicans [9] = experiment: Antifungal activity against fluconazole resistant Candida albicans strain 901 assessed as decrease in fungal cell density at 4 ug/ml by fluorescence microscopy; format: functional, organism-based; conditions: dose 4.0 µg/ml
Squalene epoxidase ERG1 = target: T1, Squalene epoxidase ERG1 (Candida albicans, UniProt Q92206); experiment: Inhibition of SE in Candida albicans ATCC SC5314 incubated for 30 mins using squalene as substrate in presence of NADPH by spectrophotometer analysis
T1 sequence (Q92206 whole entry): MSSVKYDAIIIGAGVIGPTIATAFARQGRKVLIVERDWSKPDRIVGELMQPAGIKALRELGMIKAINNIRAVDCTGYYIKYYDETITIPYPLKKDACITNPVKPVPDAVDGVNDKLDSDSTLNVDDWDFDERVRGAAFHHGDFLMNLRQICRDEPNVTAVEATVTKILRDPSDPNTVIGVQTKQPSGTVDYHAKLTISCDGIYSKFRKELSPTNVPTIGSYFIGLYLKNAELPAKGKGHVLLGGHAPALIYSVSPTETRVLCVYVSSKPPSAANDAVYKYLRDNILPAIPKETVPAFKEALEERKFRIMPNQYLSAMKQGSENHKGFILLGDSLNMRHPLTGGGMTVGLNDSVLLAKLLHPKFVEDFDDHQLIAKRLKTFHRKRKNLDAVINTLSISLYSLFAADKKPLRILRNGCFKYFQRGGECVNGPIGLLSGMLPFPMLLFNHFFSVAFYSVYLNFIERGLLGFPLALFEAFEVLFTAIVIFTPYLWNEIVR

Candida albicans [10] = experiment: Antifungal activity against Candida albicans ATCC SC5314 assessed as change in eburicol level at 4 ug/ml incubated for 48 hrs by LC-MS analysis (reference value: 1.4%); format: functional; conditions: dose 4 µg/ml
Candida albicans [11] = experiment: Induction of apoptosis in Candida albicans ATCC SC5314 cells assessed as early apoptotic cells at 8 ug/ml incubated for 72 hrs by Annexin V-FITC/PI staining based flow cytometry method (reference value: 0.56%); format: functional; conditions: dose 8 µg/ml
Candida albicans [12] = experiment: Antifungal activity against Candida albicans ATCC SC5314 assessed as change in lanosterol level at 4 ug/ml incubated for 48 hrs by LC-MS analysis (reference value: 3.7%); format: functional; conditions: dose 4 µg/ml
Candida albicans [13] = experiment: Induction of apoptosis in Candida albicans ATCC SC5314 cells assessed as necrotic cells at 8 ug/ml incubated for 72 hrs by Annexin V-FITC/PI staining based flow cytometry method (reference value: 3.76%); format: functional; conditions: dose 8 µg/ml
Pichia kudriavzevii = experiment: Antifungal activity against Candida krusei ATCC 6258 assessed as fungal growth inhibition measured after 72 hrs by CLSI protocol based liquid medium dilution method; format: functional
Candida albicans [14] = experiment: Antifungal activity against fluconazole resistant Candida albicans strain 904 assessed as fungal growth inhibition measured after 72 hrs by CLSI protocol based liquid medium dilution method; format: functional
Candida albicans [15] = experiment: Antifungal activity against fluconazole resistant Candida albicans strain 901 assessed as fungal growth inhibition measured after 72 hrs by CLSI protocol based liquid medium dilution method; format: functional
[16] = Hepatotoxicity in mouse infected with Candida albicans ATCC SC5314 assessed as change in plasma AST level at 4 mg/kg, ip administered ever other day for 12 days; format: toxicity, organism-based; conditions: in vivo, 288 h, time 12 day
Candida albicans [17] = experiment: Antifungal activity against Candida albicans ATCC SC5314 assessed as decrease in ergosterol content at 4 ug/ml incubated for 48 hrs by LC-MS analysis (reference value: 90.6%); format: functional; design: scale not given: the % may be the effect or the level left; conditions: dose 4 µg/ml
Mus musculus [18] = experiment: In vivo antifungal activity against Candida albicans ATCC SC5314 infected mouse assessed as reduction in fungal infection region at 4 mg/kg, ip administered ever other day for 12 days; format: functional, organism-based; conditions: time 12.0 day
[19] = Toxicity in mouse infected with Candida albicans ATCC SC5314 assessed as pathological changes in liver at 4 mg/kg, ip administered ever other day for 12 days by hematoxylin and eosin staining based histopathological analysis; format: organism-based; conditions: in vivo, 288 h, time 12 day
[20] = Hepatotoxicity in mouse infected with Candida albicans ATCC SC5314 assessed as change in plasma ALT level at 4 mg/kg, ip administered ever other day for 12 days; format: toxicity, organism-based; conditions: in vivo, 288 h, time 12 day
[21] = Drug uptake in fluconazole resistant Candida albicans strain 901 at 4 ug/ml by fluorescence microscopy; format: ADME; conditions: dose 4 µg/ml
Candida albicans [22] = experiment: Antifungal activity against fluconazole resistant Candida albicans strain 103 assessed as fungal growth inhibition measured after 72 hrs by CLSI protocol based liquid medium dilution method; format: functional
Mus musculus [23] = experiment: In vivo antifungal activity against Candida albicans ATCC SC5314 infected mouse model assessed as disappearance of pathogenic fungi at 4 mg/kg, ip administered ever other day for 12 days by hematoxyin-eosin staining based microscopic analysis; format: functional, organism-based; conditions: time 12.0 day
Candida albicans [24] = experiment: Antifungal activity against Candida albicans ATCC SC5314 assessed as change in unknown sterol level at 4 ug/ml incubated for 48 hrs by LC-MS analysis (reference value: 4.3%); format: functional; conditions: dose 4 µg/ml
Candida albicans [25] = experiment: Antifungal activity against fluconazole resistant Candida albicans strain CaR assessed as fungal growth inhibition measured after 72 hrs by CLSI protocol based liquid medium dilution method; format: functional
Candida albicans [26] = experiment: Antifungal activity against Candida albicans ATCC 10231 assessed as fungal growth inhibition measured after 72 hrs by CLSI protocol based liquid medium dilution method; format: functional
Candida albicans [27] = experiment: Antifungal activity against fluconazole resistant Candida albicans strain 17# assessed as fungal growth inhibition measured after 72 hrs by CLSI protocol based liquid medium dilution method; format: functional
[28] = Toxicity in mouse infected with Candida albicans ATCC SC5314 assessed as pathological changes in kidney at 4 mg/kg, ip administered ever other day for 12 days by hematoxylin and eosin staining based histopathological analysis; format: organism-based; conditions: in vivo, 288 h, time 12 day
[29] = Toxicity in mouse infected with Candida albicans ATCC SC5314 assessed as pathological changes in lung at 4 mg/kg, ip administered ever other day for 12 days by hematoxylin and eosin staining based histopathological analysis; format: organism-based; conditions: in vivo, 288 h, time 12 day
Nakaseomyces glabratus = experiment: Antifungal activity against Candida glabrata ATCC 0001 assessed as fungal growth inhibition measured after 72 hrs by CLSI protocol based liquid medium dilution method; format: functional
Candida albicans [30] = experiment: Antifungal activity against Candida albicans ATCC SC5314 assessed as change in squalene level at 4 ug/ml incubated for 48 hrs by LC-MS analysis; format: functional; conditions: dose 4 µg/ml
Aspergillus fumigatus = experiment: Antifungal activity against Aspergillus fumigatus KM8001 assessed as fungal growth inhibition measured after 72 hrs by CLSI protocol based liquid medium dilution method; format: functional
Mus musculus [31] = experiment: In vivo antifungal activity against Candida albicans ATCC SC5314 infected mouse assessed as increase in body weight at 4 mg/kg, ip administered ever other day for 12 days; format: functional, organism-based; conditions: time 12.0 day
Candida albicans [32] = experiment: Induction of apoptosis in Candida albicans ATCC SC5314 cells assessed as late apoptotic cells at 8 ug/ml incubated for 72 hrs by Annexin V-FITC/PI staining based flow cytometry method (reference value: 0.12%); format: functional; conditions: dose 8 µg/ml

Chain of Lanosterol 14-alpha demethylase (P10613 whole entry): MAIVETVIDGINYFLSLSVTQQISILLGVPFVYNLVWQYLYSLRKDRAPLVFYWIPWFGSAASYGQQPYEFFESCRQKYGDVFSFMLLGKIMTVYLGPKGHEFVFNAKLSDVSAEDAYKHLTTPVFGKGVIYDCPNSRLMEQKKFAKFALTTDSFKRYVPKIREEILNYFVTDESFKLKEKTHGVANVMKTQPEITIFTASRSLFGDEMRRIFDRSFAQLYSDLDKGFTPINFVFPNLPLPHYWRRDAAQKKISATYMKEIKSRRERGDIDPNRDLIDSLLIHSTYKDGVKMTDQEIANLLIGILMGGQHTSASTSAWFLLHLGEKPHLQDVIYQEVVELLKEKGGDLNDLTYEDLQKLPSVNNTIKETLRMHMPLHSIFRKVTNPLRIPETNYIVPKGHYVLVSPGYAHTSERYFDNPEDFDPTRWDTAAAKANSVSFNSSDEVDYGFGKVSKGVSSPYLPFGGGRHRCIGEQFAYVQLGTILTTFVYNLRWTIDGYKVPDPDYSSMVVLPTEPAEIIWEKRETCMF

Compound: O=C(N[C@H](Cc1ccccc1)Cn1cncn1)c1ccc2c(c1)OCCO2
- MIC50 (Candida tropicalis): 0.125 µg/mL (≈ 0.343 µM)
- Activity [1]: 13.1 mmol/L
- Activity (Candida albicans [2]): 52.17%
- IC50 [3]: 356 nM
- Activity (Mus musculus [4]): Active
- Activity [5]: Non-Toxic
- Activity (Mus musculus [6]): Active
- Activity (Mus musculus [7]): Active
- Activity [8]: Non-Toxic
- Activity (Candida albicans [9]): Active
- IC50 (Squalene epoxidase ERG1): 823 nM
- Activity (Candida albicans [10]): 35.3%
- Activity (Candida albicans [11]): 0.38%
- Activity (Candida albicans [12]): 18.5%
- Activity (Candida albicans [13]): 45.83%
- MIC50 (Pichia kudriavzevii): 0.125 µg/mL (≈ 0.343 µM)
- MIC50 (Candida albicans [14]): 2 µg/mL (≈ 5.49 µM)
- MIC50 (Candida albicans [15]): 1 µg/mL (≈ 2.74 µM)
- Activity [16]: 83 IU/L
- Activity (Candida albicans [17]): 24.7%
- Activity (Mus musculus [18]): Active
- Activity [19]: Non-Toxic
- Activity [20]: 54.6 IU/L
- Drug uptake [21]: Active
- MIC50 (Candida albicans [22]): 1 µg/mL (≈ 2.74 µM)
- Activity (Mus musculus [23]): Active
- Activity (Candida albicans [24]): 6.2%
- MIC50 (Candida albicans [25]): 1 µg/mL (≈ 2.74 µM)
- MIC50 (Candida albicans [26]): 0.25 µg/mL (≈ 0.686 µM)
- MIC50 (Candida albicans [27]): 2 µg/mL (≈ 5.49 µM)
- Activity [28]: Non-Toxic
- Activity [29]: Non-Toxic
- MIC50 (Nakaseomyces glabratus): 0.25 µg/mL (≈ 0.686 µM)
- Activity (Candida albicans [30]): 15.3%
- MIC50 (Aspergillus fumigatus): 2 µg/mL (≈ 5.49 µM)
- Activity (Mus musculus [31]): Active
- Activity (Candida albicans [32]): 1.62%
